Values of other authors in article PMC5465257, “Evaluation of JNJ-54717793 a Novel Brain Penetrant Selective Orexin 1 Receptor Antagonist in Two Rat Models of Panic Attack Provocation” (Frontiers in Pharmacology, 2017).

What was measured:
GABA synthesis = system: GABA synthesis; design: method as in earlier work; conditions: 3.5 nmol/0.5 μl per hour, unilateral infusions; ref Shekhar and DiMicco, 1987; Abshire et al., 1988; Shekhar et al., 1996, 2006; Shekhar and Keim, 1997; cited from earlier work
[1] = design: method as in Beig et al., 2015a; conditions: systemic administration; ref Beig et al., 2015a; cited from earlier work
[2] = design: method as in Furlong et al., 2009; conditions: ref Furlong et al., 2009; cited from earlier work
Sprague-Dawley rats = system: Sprague-Dawley rats; design: method as in Bonaventure et al., 2015b; Johnson et al., 2015; conditions: 20% CO2 model, ref Bonaventure et al., 2015b, Johnson et al.; cited from earlier work

SMILES: C=CC[C@H](N)C(=O)O [1-allyglycine]
- reduction of local GABA concentrations (GABA synthesis): approximately 60%

SMILES: CCN(Cc1cccnc1)C(=O)CN(c1ccc(OC)nc1)S(=O)(=O)c1ccccc1C [EMPA, N-ethyl-2-[(6-methoxy-pyridin-3-yl)-(toluene-2-sulfonyl)-amino]-N-pyridin-3-ylmethyl-acetamide]
- novelty stress (cage changes) induced cardioexcitation [1]: attenuates

SMILES: COc1ccc(C[C@H]2c3cc(OC)c(OC)cc3CCN2[C@@H](C(=O)NC(C)C)c2ccccc2)cc1OC [ACT335827]
- novelty stress (cage changes) induced cardioexcitation [1]: attenuates

SMILES: CNC(=O)[C@@H](c1ccccc1)N1CCc2cc(OC)c(OC)cc2[C@@H]1CCc1ccc(C(F)(F)F)cc1 [almorexant]
- locomotor and cardiovascular responses to exploration and footshock [2]: attenuated

SMILES: CC1(C)OC[C@H](NC(=O)Nc2ccc(Br)cc2Br)[C@H](c2ccccc2)O1 [JNJ-10397049]
- panic responses to 20% CO2 (Sprague-Dawley rats): did not alter
